Assay results reported in US10441569B2, “Self-emulsifying formulations of DIM-related indoles” (BioResponse, L.L.C., priority 2015, dated 2019).
Converted amounts (≈) assume the structure as drawn. Where two headings read alike, the source gives them in different places.

Key:
[1] = cited from earlier work; for log P: no own measurement; for Log P of 2nd API drug: table of exemplary 2nd API drugs
[2] = Shake-flask determination of maximum solubility of DIM; type: physicochemical; details: for solubility: 37 °C, thermodynamic from solid, read-out: maximal solubility
Experimental: (§1) In directly determining the solubility of DIM the shake-flask method for determination of maximum solubility in aqueous media was utilized. The solubility was determined as described by Lindenberg et al., 2004, Eur J Pharm Biopharm. 58(2):265-78. The drug was weighed in excess of its expected solubility in Uniprep® vials equipped with a 0.45-μm membrane filter, and 2 ml of Milli-Q water, 0.01N HCL (pH 2.0), or phosphate buffer (pH 7.4) (USP) was added into the vial. The vials were incubated at 37±0.5° C. while shaking on a “Polymax 1040” orbital shaker (Heidolph, Schwabach). The samples of the solutions were taken after 4 or 24 hours by pressing the Uniprep® plunger down, diluted as appropriate, and the concentration of DIM was analyzed by HPLC, as described below. The measurements were done in triplicate. The maximum concentration of DIM in aqueous media used in this study was 0.6 μg/ml. The solubility or stability was not influenced by pH and was similar in water, 0.01N HCl or PBS (pH 7.4).

[3] = Experimental log P of DIM (octanol / aqueous shake-flask, HPLC); type: physicochemical; details: octanol / aqueous media (separate shake-flask solubilities); from octanol and aqueous shake-flask results; read-out: Experimental log P Determination
Experimental: as §1

[4] = Solubility of DIM in individual excipients (incremental addition, microscopic observation); type: physicochemical
Experimental: The first step in this development process was the testing of a variety of excipients chosen as potentially active in solubilizing DIM. […] The method involved weighing of approximately 2 grams of each of the liquid excipients into a small vial. Subsequently, a small amount of DIM was added and the mixture was shaken.
The method involved weighing of approximately 2 grams of each of the liquid excipients into a small vial. Subsequently, a small amount of DIM was added and the mixture was shaken. […] Continued testing of acceptable oil solvents for, e.g., nutritional supplement, self-emulsifying formulations using DIM as a representative DIM-related indole active ingredient included testing of the following oils: […]

[5] = Particle size after dispersion and spontaneous emulsion formation in water (laser light scattering); type: physicochemical; details: Malvern Mastersizer, DIM as supplied by BioResponse
Experimental: Each of the formulations were tested by dispersing approximately 1 gram of the candidate formulation in 200 mL of deionized water at approximately 37° C. with slow stirring of a magnetic spin bar in a 1 L beaker. Within five minutes of the addition, sufficient mixture was added to a Malvern Mastersizer dynamic laser light scattering instrument to satisfy the obscuration of the laser beams needed for measurement.
Some of the formulations were formulated with and without Soluplus and with and without phosphatidyl choline-rich isolates from lecithin. The formulations were tested by dispersing approximately 1 gram of the candidate formulation in 200 mL of deionized water at approximately 37° C. with slow stirring of a magnetic spin bar in a 1 L beaker. Within five minutes of the addition, sufficient mixture was added to a Malvern Mastersizer dynamic laser light scattering instrument to satisfy the obscuration of the laser beams needed for measurement.
The dispersions of Formulations R and T were tested for particle size by laser diffraction following dispersion and spontaneous emulsion formation in water. […] The particle size determined is expressed as diameter in microns (μ) in the following chart, and comparison is made to other nutritional and pharmaceutical formulations described herein: […]

[6] = Single dose human oral bioavailability study (plasma DIM by LC-MS/MS); type: in vivo; details: both sexes
Experimental: Study Design: Single Center, Single-Blind, Single Dose, Oral Bioavailability Study, with Subject Crossover.
In Part I of the Study, a treatment group was administered a 300 mg dose of DIM from BR-DIM or a 300 mg dose of DIM from crystalline DIM on the first study day, followed by crossover to the other DIM formulation on the second study day, at least 14 days following the first treatment. 3 subjects were given crystalline DIM, 4 subjects were given BR-DIM.
In Part II of the Study, five individuals, four of whom participated in Part I of the Study, were administered a 300 mg dose of DIM from DIM SMEDDS Formulation D. Testing of DIM SMEDDS formula D took place on one day with 5 subjects. The subjects were all healthy, adult volunteers, both male and female, not consuming DIM containing supplements and in a fasting state on study days. Volunteers agreed not to consume cruciferous vegetable for one week prior to study days. Study groups consisted of 3, 4, or 5 individuals.
A baseline blood specimen was collected. For Part I of the Study, subjects ingested matching, opaque gelatin capsules containing either crystalline DIM (300 mg) or BR-DIM providing 300 mg DIM. Then, the subjects provided 8 cc samples of blood was collected at Baseline, and 1 hr, 2 hr, 3 hr, 4 hr, and 6 hr after administration of each of the formulations. A standard small meal was given at 4 hrs.
A baseline blood specimen was collected. Subjects ingested opaque gelatin capsules containing SEDDS DIM formulation (in particular, Formulation D described above) providing 300 mg dissolved DIM. The DIM SMEDDS formulation was provided in 3 hard gelatin capsules each containing 100 mg of DIM. Subsequently, 8 cc samples of blood were obtained and 30 cc samples of urine will be obtained according to the following chart. Blood was collected at Baseline, and 1 hr, 2 hr, 3 hr, 4 hr, and 6 hr after administration of the drug. A standard small meal was given at 4 hrs.
Blood sample handling: Within 15 minutes, plasma was centrifuged and frozen, stored on dry ice, then stored at minus 80 until assayed.
Pharmacokinetic evaluation was performed for all subjects. Blood samples (˜8 ml for each) were collected at 0 (baseline), 1, 2, 3, 4, and 6 hours after the oral administration of the dose of DIM, BR-DIM, or DIM SMEDDS formulation (i.e., Formulation D described above). Within 15 minutes of the collection, the blood samples were centrifuged at 4° C., at 2000 g for 10 minutes, and plasma was collected immediately after centrifugation and transferred to the screw-cap polypropylene cryogenic tubes. The plasma samples were stored at −80° C. until analysis.
The concentrations of DIM in human plasma samples were determined by a validated high-performance liquid chromatography with tandem mass spectrometry (LC-MS/MS) method. Briefly, to 50 μl human plasma, 100 μl of 2% formic acid in methanol (containing 1 μg/mL internal standard zileuton) was added to precipitate proteins. The mixture was vortex-mixed for 1 minute, and centrifuged at 14,000 g at 4° C. for 10 minutes. The supernatant was collected and 10 μl was injected into the LC-MS/MS system. Chromatographic analysis was performed using a Waters model 2690 separation system (Milford, Mass., USA). The analytes were separated on a Waters X-Terra MS column (150 mm×2.1 mm i.d.) using a mobile phase consisting of methanol/0.45% formic acid (70:30, v/v), and isocratic flow at 0.2 mL/min. The analytes were monitored by a Waters Micromass triple quadrupole mass spectrometer (Milford, Mass., USA) using an electrospray probe in the positive ionization mode operating at a cone voltage of 23V for DIM and 13V for the internal standard zileuton. Samples were introduced into the ionization source through a heated nebulized probe (350° C.). The collision energy was set at 30 eV and 9 eV for DIM and zileuton, respectively. The transitions at 129.9>76.8 and 237.1>161.1 were monitored for DIM and zileuton, respectively. […]

[7] = Intra-individual comparison of DIM plasma levels, one adult subject; type: in vivo; details: human, same adult subject, 300 mg oral
Experimental: Repeated single-use of 300 mg oral doses of DIM in different DIM formulations was conducted. Absorption studies using the same adult subject on separate test days were performed. This allowed comparison of DIM absorption and Plasma Pharmacokinetics through comparison of DIM plasma levels measured following administration of unformulated crystalline DIM, following administration of absorption-enhanced, microencapsulated DIM (BR-DIM), following administration of DIM SMEDDS Formulation “D” without Poloxamer 124, and following administration of DIM SMEDDS Formulation “G” with Poloxamer 124, to the human subject. The same oral administration and timed plasma sampling protocol was used on different study days, separated by at least 2 weeks. Plasma level results for each time point are presented in the following chart.

[8] = healthy humans, single oral dose 300 mg DIM, averaged

Compound: COc1cc2ncnc(Nc3ccc(F)c(Cl)c3)c2cc1OCCCN1CCOCC1 [Gefitinib, N-(3-chloro-4-fluoro-phenyl)-7-methoxy-6-(3-morpholin-4-ylpropoxy)quinazolin-4-amine]
- log P [1]: 3.72
- Log P of 2nd API drug [1]: 3.72

Compound: CCCCCCCCCCCCCCCC(=O)OC/C=C(C)/C=C/C=C(C)/C=C/C1=C(C)CCCC1(C)C [Retinyl palmitate, Retinyl Palmitate]
- log P [1]: 5.68

Compound: CNC(=O)c1cccc2cc(Oc3ccnc4cc(OCC5(N)CC5)c(OC)cc34)ccc12 [Lucitanib, 6-[7-[(1-aminocyclopropyl)methoxy]-6-methoxyquinolin-4-yl]oxy-N-methylnaphthalene-1-carboxamide]
- log P [1]: 3.81
- Log P of 2nd API drug [1]: 3.81

Compound: CC1=C(/C=C/C(C)=C/C=C/C(C)=C\C(=O)O)C(C)(C)CCC1 [isotretinoin, 13-cis retinoic acid]
- log P [1]: 6.83

Compound: Vitamin D
- log P [1]: 7.5

Compound: CC(O)(CS(=O)(=O)c1ccc(F)cc1)C(=O)Nc1ccc(C#N)c(C(F)(F)F)c1 (centres unmarked) [Biculatamide, Bicalutamide]
- log P [1]: 4.94

Compound: COc1cc(C)c(/C=C/C(C)=C/C=C/C(C)=C/C(=O)O)c(C)c1C [acitretin]
- log P [1]: 5.73

Compound: CC(C)=CCC/C(C)=C/CC/C(C)=C/CC/C(C)=C/CC1=C(C)C(=O)c2ccccc2C1=O [menaquinone-4]
- log P [1]: 10-12

Compound: c1ccc2c(Cc3c[nH]c4ccccc34)c[nH]c2c1 [DIM, 3,3′-diindolylmethane]
- solubility ([2]; 0.01N HCl, simulated gastric fluid, aqueous acid environment of pH 2): 0.6 µg/mL (≈ 2.44 µM)
- solubility ([2]; in water): 0.7 µg/mL (≈ 2.84 µM)
- concentration of DIM in Octanol ([2]; Octanol, shake-flask method, HPLC): 2,300 μg/ml
- maximum concentration of DIM in aqueous media ([2]; water, 0.01N HCl (pH 2.0) or phosphate buffer (pH 7.4), 37°C): 0.6 µg/mL
- logP [3]: 3.58
- DIM Solubility % ([4]; in Black Cumin oil): 2%
- DIM Solubility ([4]; in Capryol 90 (Propylene glycol monocaprylate)): 7%
- DIM Solubility ([4]; in Capryol PGMC (Propylene glycol monocaprylate)): 8%
- DIM Solubility ([4]; in Crodasol HS-HP (monoesters and diesters of 12-hydroxystearic acid and macrogols)): 14%
- DIM Solubility ([4]; in Gelucire 44/14 (Lauroyl polyoxyl-32 glycerides)): 19%
- DIM Solubility ([4]; in Labrafac AC WL1349 (Medium-chain triglycerides)): 3%
- DIM Solubility ([4]; in Labrafac PG (Propylene glycol di-caprylate)): 4.5%^
- DIM Solubility ([4]; in Labrafil M1944CS (Oleoyl polyoxyl-6 glycerides)): 5%
- DIM Solubility ([4]; in Labrasol ALF (Caprylocaproyl polyoxyl-8 glycerides)): 25%
- DIM Solubility ([4]; in Lauroylglycol 90 (Propylene glycol monolaurate)): 3%
- DIM Solubility ([4]; in Maisine 35-1 (Glyceryl monolinoleate)): 2%
- DIM Solubility ([4]; in Peceol (Glycerol monooleate)): 2%
- DIM Solubility ([4]; in Peppermint oil): 4%
- DIM Solubility ([4]; in Plurol Oleique (Glycerol mono/di-oleate)): 5%
- DIM Solubility ([4]; in Polysorbate 80): 12%
- DIM Solubility ([4]; in Propylene glycol): 2%
- DIM Solubility % ([4]; in Rosemary Oil): 6%
- DIM Solubility ([4]; in Transcutol (Diethylene glycol monoethyl ether)): >25%
- ability of oil to dissolve DIM ([4]; olive oil or sunflower oil): very low ability to dissolve DIM
- Particle Size Diameter after Dispersion in Water (nm) [5]: 3,010^1^ nm
- AUC(0-inf) [6, 8]: 98.5 ng·h/mL
- Cmax [6, 8]: 18.1 ng/mL
- Tmax [6, 8]: 1.7 h
- half-life [6, 8]: 2.2 h
- concentration at 0 h ([6]; time 0 hour (baseline), 300 mg oral, read-out: averaged plasma level of DIM): 0 ng/mL
- concentration at 1 h ([6]; time 1 hour, 300 mg oral, read-out: averaged plasma level of DIM): 17.8 ng/mL
- concentration at 2 h ([6]; time 2 hour, 300 mg oral, read-out: averaged plasma level of DIM): 16.7 ng/mL
- concentration at 3 h ([6]; time 3 hour, 300 mg oral, read-out: averaged plasma level of DIM): 10.6 ng/mL
- concentration at 4 h ([6]; time 4 hour, 300 mg oral, read-out: averaged plasma level of DIM): 10 ng/mL
- concentration at 6 h ([6]; time 6 hour, 300 mg oral, read-out: averaged plasma level of DIM): 5.8 ng/mL
- AUC ([6]; time zero to infinity, 300 mg oral): 98.5 ng·h/mL
- AUC [7]: 17 ng·h/mL
- Cmax [7]: 6.8 ng/mL
- concentration at 0 h ([7]; time 0 hr, read-out: Plasma level of DIM): 0 ng/mL
- concentration at 1 h ([7]; time 1 hr, read-out: Plasma level of DIM): 4.5 ng/mL
- concentration at 2 h ([7]; time 2 hr, read-out: Plasma level of DIM): 6.8 ng/mL
- concentration at 3 h ([7]; time 3 hr, read-out: Plasma level of DIM): 4.7 ng/mL
- concentration at 4 h ([7]; time 4 hr, read-out: Plasma level of DIM): 2.6 ng/mL
